Broadly, the logD is lipophilicity at a set pH, counting ionised and neutral species.

This is an account of results in ChEMBL document CHEMBL1821550 (Bioorg Med Chem Lett, 2011).

This data set can be described thus: physchem. The conditions noted are these: octanol/water.

In turn, `Cc1nc2cc(F)ccc2c(=O)n1-c1ccc(OCCCN2CCCC2)cc1` had a logD of 1.9. Next, `COc1ccc2nc(C)n(-c3ccc(OCCCN4CCCC4)cc3)c(=O)c2c1`: 1.7. Next, `Clc1cc2sc(N3CCC(N4CCCCC4)CC3)nc2cn1`: 1.2; `CCOc1ccc(-n2ncc(-c3ccc4cc(CCN5CCC[C@H]5C)ccc4n3)c2C)nn1`: 3.8. `C[C@@H]1CCCN1CCc1ccc2nc(-c3ccc4c(c3)COCO4)ccc2c1` came in with a logD of 3.2. Next, `COc1ccc2c(c1)S(=O)(=O)C(C)C(c1ccc(OCCCN3CCCC3)cc1)O2` (stereo unspecified): 2.2.

As for `COc1ccc2c(=O)n(C)c(-c3ccc(OC4CCN(C5CCC5)CC4)cc3)nc2c1`, the logD came out at 2.2. Next, `C[C@@H]1CCCN1CCc1ccc2nc(-c3ccc(Cl)nc3)ccc2c1`: 3.4; `O=C(N1CCN(C2CC2)CC1)N1Cc2ccccc2C1`: 0.1. Next, `O=c1c2ccccc2nc(-c2ccccc2)n1-c1ccc(OCCCN2CCCC2)cc1`: 3.4; `C[C@@H]1CCCN1CCc1ccc2nc(-c3cnc(-c4ccccc4)s3)ccc2c1`: 4.3. Next, `CCn1c(-c2ccc(OCCCN3CCCCC3)cc2)nc2ccccc2c1=O`: 2.6; `COc1cccc2c(=O)n(C)c(-c3ccc(OC4CCN(C5CCC5)CC4)cc3)nc12`: 2.2. In the case of `Cc1nc(-c2cccnc2)sc1-c1ccc2cc(CCN3CCC[C@H]3C)ccc2n1`, the logD stood at 3.5. Turning to `CCCn1c(-c2ccc(OCCCN3CCCCC3)cc2)nc2ccccc2c1=O`, the logD stood at 3.1. In turn, `C[C@@H]1CCCN1CCc1ccc(-c2ccc(S(=O)(=O)NCC3CC3)cc2)cc1` returned a logD of 2.8. Next, `Cn1c(-c2ccc(OCCCN3CCCC3)cc2)nc2ccccc2c1=O`: 1.8; `Cc1nc(C)c(-c2ccc3cc(CCN4CCCC4C)ccc3n2)cc1C(N)=O` (stereo unspecified): 2.1; `Cn1c(-c2ccc(OC3CCN(C4CCC4)CC3)cc2)nc2c(F)cccc2c1=O`: 2.4. Next, `Cc1c(-c2ccc3cc(CCN4CCC[C@H]4C)ccc3n2)sc2nc3ccccc3n12`: 4.5; `Cc1c(-c2ccc(Cl)cc2)noc1-c1ccc2cc(CCN3CCC[C@H]3C)ccc2n1`: 5.5. As to `Cc1nc(C)c(-c2ccc3cc(CCN4CCC[C@H]4C)ccc3n2)s1`, the logD is 2.9. Next, `COc1cc(-c2cnc3nc(N4CCC(N5CCCCC5)CC4)sc3c2)ccn1`: 1.4; `Fc1cc(-c2cc3sc(N4CCC(N5CCCCC5)CC4)nc3cn2)ccn1`: 1.7.

Regarding `CC1=C(c2ccc(OCCCN3CCCC3)cc2)Oc2ccccc2S1(=O)=O`, the logD came out at 1.9. Next, `C[C@@H]1CCCN1CCc1ccc2nc(-c3cncnc3)ccc2c1`: 1.9; `c1ccc(-c2ccc(OCCCN3CCCCC3)cc2)cc1`: 2.9. `C[C@@H]1CCCN1CCc1ccc(-c2ccc(S(=O)(=O)NCc3ccccc3)cc2)cc1` showed a logD of 3.6. Regarding `COc1ccc2nc(-c3ccc(OC4CCN(C5CCC5)CC4)cc3)n(C)c(=O)c2c1`, the logD amounted to 2.2. Next, `Cc1nc2cc(C(F)(F)F)ccc2c(=O)n1-c1ccc(OCCCN2CCCC2)cc1`: 2.6. `C[C@@H]1CCCN1CCc1ccc(-c2ccc(S(=O)(=O)N3CCS(=O)(=O)CC3)cc2)cc1` came in with a logD of 1.6. The compound `Cc1nc2ccccn2c1-c1ccc2cc(CCN3CCC[C@H]3C)ccc2n1` registered a logD of 3.2. Next, `C[C@@H]1CCCN1CCc1ccc2nc(-c3ccncc3)ccc2c1`: 2.5.

With `C[C@@H]1CCCN1CCc1ccc2ncccc2c1`, the logD is 1.7.

The compound `C[C@@H]1Sc2ccccc2O[C@@H]1c1ccc(OCCCN2CCCC2)cc1` registered a logD of 3.3. `C[C@@H]1CCCN1CCc1ccc2nc(-c3c(-c4ccccc4)nn(C)c3Cl)ccc2c1` returned a logD of 4.7.

Turning to `COc1nccc2c(=O)n(C)c(-c3ccc(OC4CCN(C5CCC5)CC4)cc3)nc12`, the logD came to 1.6. The compound `c1cc(C2CCCO2)ccc1OCCCN1CCCCC1` (stereo unspecified) had a logD of 1.7. Next, `Cc1nc2cccc(Cl)c2c(=O)n1-c1ccc(OCCCN2CCCC2)cc1`: 2.4; `Cc1cc(C(F)(F)F)cc(-n2ncc(-c3ccc4cc(CCN5CCC[C@H]5C)ccc4n3)c2C)n1`: 4.6; `CCNS(=O)(=O)c1ccc(-c2ccc(CCN3CCC[C@H]3C)cc2)cc1`: 2.3. On to `CCC(CO)NS(=O)(=O)c1ccc(-c2ccc(CCN3CCC[C@H]3C)cc2)cc1` (stereo partly specified), for which the logD was 2.3. `COc1ccccc1-c1ccc(OCCCN2CCCCC2)cc1` gave a logD of 2.9. Next, `COc1ccc2c(c1)OC(c1ccc(OCCCN3CCCC3)cc1)C(C)S2(=O)=O` (stereo unspecified): 2.2. In turn, `Cc1nc(-c2cnccn2)sc1-c1ccc2cc(CCN3CCC[C@H]3C)ccc2n1` had a logD of 2.7.

On to `COc1cccc2c1OC(c1ccc(OCCCN3CCC[C@@H]3C)cc1)C(C)S2(=O)=O` (stereo partly specified), for which the logD was found to be 2.6. `CC(=O)Nc1ccc(-c2cnc3nc(N4CCC(N5CCCCC5)CC4)sc3c2)cn1`: the logD stood at 0.6. Next, `C[C@@H]1CCCN1CCc1ccc2nc(-c3cn[nH]c3)ccc2c1`: 2.1; `N#Cc1cncc(-c2cc3sc(N4CCC(N5CCCCC5)CC4)nc3cn2)c1`: 1. Turning to `Cc1nn(C)cc1-c1ccc2cc(CCN3CCC[C@H]3C)ccc2n1`, the logD stood at 2.6. Next, `O=C(C1CC(Oc2cccc(F)c2)CN1)N1CCCN(C2CCC2)CC1` (stereo unspecified): 0.2; `C[C@@H]1CCCN1CCc1ccc(-c2ccc(S(=O)(=O)Nc3ccccc3)cc2)cc1`: 3.5.

For the compound `Cc1c(-c2ccc3cc(CCN4CCC[C@H]4C)ccc3n2)sc2ncnn12`, the logD came to 2.8. Next, `C[C@@H]1CCCN1CCc1ccc2nc(-c3csc(-c4ccccc4)n3)ccc2c1`: 4.4; `CC(C)n1c(-c2ccc(OCCCN3CCCCC3)cc2)nc2ccccc2c1=O`: 3. Next, `Cc1nc2ccc(F)cc2c(=O)n1-c1ccc(OCCCN2CCCC2)cc1`: 1.9; `Fc1ccc(-c2cnc3nc(N4CCC(N5CCCCC5)CC4)sc3c2)cn1`: 1.5; `c1cc(C2CCOCC2)ccc1OCCCN1CCCCC1`: 1.8. Next, `Fc1ncccc1-c1cc2sc(N3CCC(N4CCCCC4)CC3)nc2cn1`: 1.7; `c1cc(C2=NCCO2)ccc1OCCCN1CCCCC1`: 1.3. In the case of `Fc1ccc(-c2cc3sc(N4CCC(N5CCCCC5)CC4)nc3cn2)cn1`, the logD is 1.7. Next, `Cc1ccc2c(=O)n(-c3ccc(OCCCN4CCCC4)cc3)c(C)nc2c1`: 2.2. Next, `Cc1cccc2c(=O)n(-c3ccc(OCCCN4CCCC4)cc3)c(C)nc12`: 2.2; `C[C@@H]1CCCN1CCc1ccc(-c2ccc(S(=O)(=O)NC3CCOCC3)cc2)cc1`: 1.8; `Cc1nc(C)c(-c2ccc3cc(CCN4CCC[C@H]4C)ccc3n2)o1`: 2.4. Next, `CC(C)N1CCN(C(=O)N2CCc3ccccc3C2)CC1`: 1; `Cc1c(-c2ccc3cc(CCN4CCC[C@H]4C)ccc3n2)cnn1-c1ccc(N(C)C)nn1`: 3; `COC(=O)N1CC(Oc2ccc(F)cc2)CC1C(=O)N1CCCN(C2CCC2)CC1` (stereo unspecified): 1.8. Turning to `C[C@@H]1CCCN1CCc1ccc(-c2ccc(S(=O)(=O)N3CCOCC3)cc2)cc1`, the logD came to 1.9.

As to `Cc1cc(-c2ccc3cc(CCN4CCC[C@H]4C)ccc3n2)nc(-c2ccccc2)n1`, the logD was found to be 4.2. Next, `C[C@@H]1CCCN1CCc1ccc2nc(-c3cnccn3)ccc2c1`: 1.8; `Cc1ccc2nc(C)n(-c3ccc(OCCCN4CCCC4)cc3)c(=O)c2c1`: 2.2. Compound `COc1ccc(-c2cnc3nc(N4CCC(N5CCCCC5)CC4)sc3c2)cn1` came in with a log distribution coefficient (logD) of 1.4.

As to `C[C@@H]1CCCN1CCc1ccc2nc(-c3nc4ccccc4s3)ccc2c1`, the pH-dependent lipophilicity (logD) came to 4.1. `N#Cc1cncc(-c2cnc3nc(N4CCC(N5CCCCC5)CC4)sc3c2)c1` came in with a logD of 0.8.

As for `COc1cccc2c1OC(c1ccc(OCCCN3CCCCC3)cc1)C(C)S2(=O)=O` (stereo unspecified), the logD turned out to be 2.7. Next, `Cc1nc2ccccc2c(=O)n1-c1ccc(OCCCN2CCCC2)cc1`: 1.7. Next, `C[C@@H]1CCCN1CCc1ccc2nc(C(C)(C)C)ccc2c1`: 3.6. Next, `COC(=O)c1c(C)noc1-c1ccc2cc(CCN3CCC[C@H]3C)ccc2n1`: 2.5. In turn, `Cc1nc(-c2ccncc2)sc1-c1ccc2cc(CCN3CCC[C@H]3C)ccc2n1` registered a log distribution coefficient (logD) of 3.5. Next, `c1c[nH]c(-c2ccc(OCCCN3CCCCC3)cc2)n1`: 1.6; `Cn1c(-c2ccc(OCCCN3CCCCC3)cc2)nc2ccccc2c1=O`: 2.2; `N#Cc1cc(-c2cnc3nc(N4CCC(N5CCCCC5)CC4)sc3c2)ccc1F`: 2.1.

The compound `Cc1c(-c2ccc3cc(CCN4CCC[C@H]4C)ccc3n2)cnn1-c1ccccn1` registered a logD of 3.4. `C[C@H]1[C@H](c2ccc(OCCCN3CCCC3)cc2)Oc2ccccc2S1(=O)=O` had a logD of 2.2. Next, `CC(C)c1nc2ccccc2c(=O)n1-c1ccc(OCCCN2CCCC2)cc1`: 2.8; `Nc1ccc(-c2cnc3nc(N4CCC(N5CCCCC5)CC4)sc3c2)cn1`: 0.7. Next, `C[C@@H]1CCCN1CCc1ccc(-c2ccc(S(=O)(=O)N3CCC(O)C3)cc2)cc1` (stereo partly specified): 1.5; `O=C(C1CC(Oc2ccc(Cl)cc2)CN1)N1CCCN(C2CCC2)CC1` (stereo unspecified): 0.6. Next, `COc1cccc2c(=O)n(-c3ccc(OCCCN4CCCC4)cc3)c(C)nc12`: 1.7. In the case of `Cc1[nH]ncc1-c1ccc2cc(CCN3CCC[C@H]3C)ccc2n1`, the logD amounted to 2.4. Next, `C[C@@H]1CCCN1CCc1ccc2nc(-c3ccc(C#N)cc3)ccc2c1`: 3.5; `C[C@@H]1CCCN1CCc1ccc2nc(-c3c(O)ccnc3C(F)(F)F)ccc2c1`: 3.6.

The compound `CCCc1nc2ccccc2c(=O)n1-c1ccc(OCCCN2CCCC2)cc1` yielded a logD of 2.8. Next, `C[C@@H]1CCCN1CCc1ccc2nc(-c3nccs3)ccc2c1`: 2.5; `O=C(c1ccccc1-c1ccc(OCCCN2CCCCC2)cc1)N1CCCCC1`: 3.2.
